Laboratory results: ChEMBL document CHEMBL4715805, “Structure-Activity Relationship for Sulfonamide Inhibition of Helicobacter pylori α-Carbonic Anhydrase” (J Med Chem, 2016)

Assay: Inhibition of Helicobacter pylori alpha-carbonic anhydrase expressed in Escherichia coli assessed as inhibition constant preincubated for 15 mins prior to testing by phenol red-based stopped-flow CO2 hydration assay

`Cn1nc(S(N)(=O)=O)s/c1=N/S(=O)(=O)c1ccc(C(C)(C)C)cc1` gave a Ki of 8.2 nM.
